Residues, ends and D or L forms follow the SMILES beside them.
Legend:
[1] = tested on: KDR/FIk-1 receptor; assay: Inhibition of phospho-tyrosine activation of KDR by VEGF in HUVEC; format: cell-based, human; settings: 200 μM
Experimental: The ability of various compositions comprising TKPPR monomers or multimers to inhibit phospho-tyrosine activation of the KDR/FIk-1 receptor by VEGF was evaluated using HUVECs. Nine 100 mm confluent dishes of cultured HUVEC cells were serum starved overnight in basal (EBM) medium without any additives. The next morning the plates were divided into three groups as follows:
1. 3 Plates had their medium changed to fresh EBM medium with no additions.
After 5 minutes at 37° C. the dishes were all drained and quickly washed 3 times with cold D-PBS with Ca and Mg (Life Technologies). Lysates were prepared from each treatment group using Triton X-100 lysis buffer (20 mM Tris pH 8.0, 137 mM NaCl, 10% glycerol, 1% Triton X-100, 2 mM EDTA Supplemented with 1 mM PMSF, […] Leupeptin and Aprotinin, 1 mM sodium orthovanadate, 50 mM sodium pyrophosphate, 100 mM sodium fluoride.) The pooled lysates from each group were precleared using Protein A beads from Sigma then incubated overnight with anti-KDR antibody (Sc-504 from Santa Cruz Biotech). The immune complexes were brought down by adding fresh Protein A beads. […] The intensity of phosphorylated (active) KDR for each treatment group was determined from the PY-20 blot then normalized to the total amount of KDR present as determined by re-probing with anti-KDR (sc-315).

[2] = molecular target: NP-1/Fc; assay: Inhibition of 125I-VEGF165 binding to NP-1/Fc; settings: 250 pM 125I-VEGF165, 4° C., 2 hours
Experimental: The ability of various compositions comprising TKPPR monomers or multimers to inhibit ^125I-VEGF binding to NP-1 was evaluated using NP-1/Fc. Competitive binding assays with microtiter plates coated with NP-1/Fc (R&D sytems) were performed using ^125I-VEGF165 as radioligand (Amersham Pharmacia Biotech Cat. No. IM274, Specific Activity: 1000-2500 Ci/mmol). […] Plates (Nunc MaxiSorp white opaque Microtiter plate [C-bottom, 437796]) were coated by incubating the wells with 75 µl of a solution containing 3 μlg/mL NP-1/Fc in D-PBS/0.1% NaAzide overnight at 4° C. after covering with sealing tape (Dynex, VWR Cat. No. 62402-931). […] All points were derived from triplicate wells, and for each set of replicates in NP-1/Fc-coated wells, a companion set in the absence of the receptor was included. For competitive binding, a series of unlabelled competitor concentrations were prepared in a 250 pM solution of ^1251-VEGF165 in assay buffer Solutions were added to 1.2 ml polypropylene tubes conforming to the microtiter format (Costar Cat. No. 29442-602), and transferred from these tubes to microtiter wells, without further dilution, using a multichannel pipettor. After addition of the appropriate solutions, microtiter plates were incubated at 4° C. for 2 hours. […] The plates were blotted dry and 25 μl deionized water and 100 μl scintillation fluid (Optiphase SuperMix, Wallac) were added to each well. Plates were agitated using a Plate Shaker (Hyperion, Cat. No. 4030-100F) for 3-5 minutes and were then counted using a Microplate Scintillation Counter (Wallac Microbeta Trilux) A set of serially diluted 125I-VEGF165 standard wells ranging from 200 to 0.04 pM were included with each experiment to aid in quantification of the amount of radiolabel bound.

With `CC(O)C(N)C(=O)NC(CCCCN)C(=O)N1CCCC1C(=O)N1CCCC1C(=O)NC(CCCNC(=N)N)C(=O)O` [TKPPR, L-Arginine, L-threonyl-L-lysyl-L-prolyl-L-prolyl] (H-TKPPR-OH; configuration not given here) the “effect on the ability of VEGF to activate KDR” value [1] was “no effect” and the IC50 [2] was 43 µM.

Reference: patent US20020147136A1, “Compounds for targeting endothelial cells, compositions containing the same and methods for their use” (priority 2000, published 2002)
